Key:
Type in all cases: cell-based
HL60 cells = assay: Anti-proliferation on HL60 cells (CellTiter-Glo, 3 days); settings: Homo sapiens, HL-60, 72 h, 3 days incubation, CTG luminescence, IC50 by XLfit, read-out: HL60 cells Proliferation inhibitory activity
In short: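 Log-phase cells were plated at 20000 cells/well and treated with compound dilutions in RPMI-1640 for 3 days, with 0.1% DMSO controls. Proliferation was read by CellTiter-Glo luminescence. IC50 was fitted from the inhibition rates.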

c-Myc protein = target: T1, c-Myc protein (Homo sapiens, UniProt P01106); assay: c-Myc protein degradation in HL60 cells (Western blot); settings: for remaining activity at 0.01 µM: HL-60, compound at 10 nM, 24 h, gray value relative to Ctrl (DMSO), read-out: Remaining amount of c-Myc protein (@10 nM/Ctrl)
T1 construct: degradation of myc and GSPT1 proteins in HL60 cells; endogenous in cells; host or cells: HL60
T1 sequence (P01106 whole entry): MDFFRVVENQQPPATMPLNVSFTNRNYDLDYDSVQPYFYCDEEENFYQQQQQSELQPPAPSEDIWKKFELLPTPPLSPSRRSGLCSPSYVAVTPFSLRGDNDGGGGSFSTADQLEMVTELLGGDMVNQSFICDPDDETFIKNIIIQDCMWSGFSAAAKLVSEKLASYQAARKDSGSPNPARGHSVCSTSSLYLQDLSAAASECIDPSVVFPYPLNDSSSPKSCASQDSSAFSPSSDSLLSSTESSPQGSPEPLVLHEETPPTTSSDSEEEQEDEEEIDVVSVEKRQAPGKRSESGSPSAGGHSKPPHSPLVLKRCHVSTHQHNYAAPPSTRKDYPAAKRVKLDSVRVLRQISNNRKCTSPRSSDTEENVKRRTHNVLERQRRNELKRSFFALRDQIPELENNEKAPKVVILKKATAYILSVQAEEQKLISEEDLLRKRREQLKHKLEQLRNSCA
Procedure: (§1) HL60 cells in the exponential growth phase were digested and plated into a 6-well plate at 1×10^6 cells per well. The cell culture medium was RPMI-1640 (meilunbio, MA0215). After a day of adherent growth of the cells, the compound of the present invention was added as a test drug for culture, and proteins were extracted 24 h later (Ctrl meant adding only DMSO at the same volume).
(§2) In the 6-well plate, the culture medium RPMI-1640 (meilunbio, MA0215) was removed, and the cells were washed once with PBS, digested with trypsin, and centrifuged and collected separately into 1.5 mL centrifuge tubes. 100 μL of RIPA lysis buffer (containing 100 μM PMSF) was added to each tube, mixed thoroughly, allowed to stand on ice for 30 min and then centrifuged at 12000 rpm at 4° C. using a centrifuge for 20 min. The supernatant was used for Western blotting experiments. The sample can be stored at −80° C.
(§3) By using the BCA protein concentration determination kit (from Thermo Fisher, Cat. No. 23225), the BSA standard determination solution and the samples to be tested (the samples to be tested can be diluted and then tested) were prepared according to the table A below. Samples were added to the 96-well plate. Each well was supplemented with PBS to 20 μL, and then 200 μL of BCA working solution (prepared according to the kit) was added respectively and mixed evenly. The plate was placed at 60° C. for 10 min, and then the absorbance at 562 nm was detected. After the reading was recorded, a standard curve was plotted using concentration gradients of the standards, and the absorbance of the samples was substituted to calculate the protein concentration of the samples.
(§4) • 2.1 Protein denaturation: RIPA protein buffer (purchased from Solarbio, Cat. No. R0010) and 5× Loading Buffer (SDS, glycerin, bromophenol blue, TRIS) (purchased from Solarbio, Cat. No. P1040) were added, and the protein samples were denatured at 100° C. for 5 min. • 2.2 Sample loading and electrophoresis: 10% precast gel and the corresponding electrophoresis buffer were used. The same mass of protein sample and protein ladder (purchased from thermo, Cat. No. 26617) were loaded into each well, and electrophoresis at 200 V was performed for 30 min. • 2.3 […]: The gel was excised to remove the excess part. Transferring to PVDF membrane was performed by the wet transfer method (before use, it was necessary to activate the PVDF membrane with methanol for 1 min) at 300 mA for 2 h, during which a lot of heat was generated, and thus cooling with an ice box was required. • 2.4 Blocking: After the transferring, the PVDF membrane was placed in 5% skim milk and blocked with shaking at room temperature for 1 h. • 2.5 Incubating with primary antibody: The PVDF membrane was cut according to the molecular weight indicated on the marker and placed in c-myc (purchased from abcam, Cat. No. ab32072), or GSPT1 (purchased from abcam, Cat. No. ab234433), or CK1α (purchased from abcam, Cat. No. ab206652), or IKZF2 (purchased from proteintech, Cat. No. 13554-1-AP), and GAPDH (purchased from CST, Cat. No. #97166) primary antibodies. The antibodies were diluted with TBST buffer (a solution prepared from TRIS, KCL and NaCl and adjusted to pH 7.4 with hydrochloric acid, and Tween 20 was added) at a ratio of 1:1000, and blocked overnight on a shaker at 4° C. • 2.6 Incubating with secondary antibody: The PVDF membrane incubated with the primary antibody was washed with TBST for 3 times, each time for 10 min. After washing, the membrane was placed in the secondary antibody of the corresponding species, and incubated at room temperature in a shaker for 2 h. • 2.7 Washing membrane and exposure: After incubated with the secondary antibodies, the membrane was washed 3 times with TBST on a shaker, 10 minutes each time. […]

GSPT1 protein = target: T2, GSPT1 protein (Homo sapiens, UniProt P15170); assay: GSPT1 protein degradation in HL60 cells (Western blot); settings: for remaining GSPT1 protein at 0.01 µM: HL-60, compound at 10 nM, 24 h, gray value relative to Ctrl (DMSO), read-out: Remaining amount of GSPT1 protein (@10 nM/Ctrl)
T2 construct: degradation of myc and GSPT1 proteins in HL60 cells; endogenous in cells; host or cells: HL60
T2 sequence (P15170 whole entry): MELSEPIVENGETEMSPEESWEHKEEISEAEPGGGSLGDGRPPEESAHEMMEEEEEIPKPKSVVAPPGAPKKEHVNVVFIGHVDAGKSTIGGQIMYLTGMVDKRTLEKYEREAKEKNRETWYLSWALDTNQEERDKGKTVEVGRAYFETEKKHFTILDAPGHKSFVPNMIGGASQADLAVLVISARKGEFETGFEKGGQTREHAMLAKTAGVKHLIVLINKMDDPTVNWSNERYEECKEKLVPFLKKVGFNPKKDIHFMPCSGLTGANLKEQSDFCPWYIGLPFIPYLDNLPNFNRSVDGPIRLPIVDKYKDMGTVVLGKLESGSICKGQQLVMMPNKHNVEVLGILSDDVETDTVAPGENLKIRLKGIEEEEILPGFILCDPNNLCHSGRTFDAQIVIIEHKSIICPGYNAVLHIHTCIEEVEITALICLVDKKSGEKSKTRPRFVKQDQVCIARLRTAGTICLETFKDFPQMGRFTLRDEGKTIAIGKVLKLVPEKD
Procedure: as §1, §2, §3, §4

Row | Compound | IC50 (HL60 cells) | remaining activity at 0.01 µM (c-Myc protein) | remaining GSPT1 protein at 0.01 µM (GSPT1 protein) | Degradation of c-Myc protein in HL60 cells at 300 nM (FIG. 2, FIG. 3, in words) (c-Myc protein) | Degradation of GSPT1 protein in HL60 cells at 300 nM (FIG. 2, FIG. 3, in words) (GSPT1 protein) | Degradation of GSPT1 protein in HL60 cells at 100 nM (FIG. 3, in words) (GSPT1 protein)
1 | O=C1CCC(N2Cc3cc(CNC(=O)C4CCN(c5ncc(-c6cccc(Cl)c6)cn5)CC4)ccc3C2=O)C(=O)N1 (centres unmarked) [Compound A65] | < 0.2 nM | 0% | 14% |  |  | 
2 | O=C1CCC(N2Cc3cc(CNCC4CCN(c5ncc(-c6cccc(F)c6)cn5)CC4)ccc3C2=O)C(=O)N1 (centres unmarked) [Compound A67] | 2 nM | 19% | 25% |  |  | 
3 | O=C1C[C@H](N2Cc3cc(CNCC4CCN(c5ncc(-c6cccc(Cl)c6)cc5C(F)(F)F)CC4)ccc3C2=O)C(=O)N1 [Compound A169] | 46.3 nM | 105% | 65% | simultaneously degrade both GSPT1 and c-Myc proteins | significantly degrade GSPT1 protein | 
4 | O=C1CCC(N2Cc3cc(CNCC4CCN(c5cnc(-c6cccc(Cl)c6)cn5)CC4)ccc3C2=O)C(=O)N1 (centres unmarked) [Compound A102] | 0.5 nM | 0% | 0% |  |  | 
5 | O=C1CCC(n2nc3cc(CNCC4CCN(c5ncc(-c6cccc(Cl)c6)cc5C(F)(F)F)CC4)ccn3c2=O)C(=O)N1 (centres unmarked) [Compound A146] | 139 nM |  |  |  | significantly degrade GSPT1 protein | 
6 | Cc1cccc(-c2cnc(N3CCC(F)(CNCc4ccc5c(c4)CN(C4CCC(=O)NC4=O)C5=O)CC3)c(C(F)(F)F)c2)c1 (centres unmarked) [Compound A85] | 1 nM | 8% | 3% |  |  | 
7 | COC(=O)c1cc(-c2cccc(Cl)c2)cnc1N1CCC(CNCc2ccc3c(c2)CN(C2CCC(=O)NC2=O)C3=O)CC1 (centres unmarked) [Compound A100] | < 0.2 nM | 0% | 0% |  |  | 
8 | O=C1CCC(N2Cc3cc(CCCC4CCN(c5ncc(-c6cccc(Cl)c6)cc5C(F)(F)F)CC4)ccc3C2=O)C(=O)N1 (centres unmarked) [Compound A134] | 223 nM |  |  | simultaneously degrade both GSPT1 and c-Myc proteins | simultaneously degrade both GSPT1 and c-Myc proteins | significantly degrade GSPT1 protein
9 | O=C1CCC(N2Cc3cc(CNCC4CCN(c5ccc(-c6cccc(Cl)c6)nc5)CC4)ccc3C2=O)C(=O)N1 (centres unmarked) [Compound A71] | < 0.2 nM | 26% | 0% |  |  | 
10 | O=C1CCC(N2Cc3ccc(CNCC4CCN(c5ncc(-c6cccc(Cl)c6)cc5C(F)(F)F)CC4)cc3C2)C(=O)N1 (centres unmarked) [Compound A145] | 387 nM |  |  |  | significantly degrade GSPT1 protein | 
11 | N#Cc1cccc(-c2cnc(N3CCC(CNCc4ccc5c(c4)CN(C4CCC(=O)NC4=O)C5=O)CC3)c(F)c2)c1 (centres unmarked) [Compound A111] | 1.3 nM | 6% | 2% |  |  | 
12 | COc1cccc(-c2cnc(N3CCC(CNCc4ccc5c(c4)CN(C4CCC(=O)NC4=O)C5=O)CC3)c(F)c2)c1 (centres unmarked) [Compound A112] | < 0.2 nM | 0% | 0% |  |  | 
13 | N#Cc1cccc(-c2cnc(N3CCC(CNCc4ccc5c(c4)CN(C4CCC(=O)NC4=O)C5=O)CC3)nc2)c1 (centres unmarked) [Compound A69] | 22 nM | 30% | 53% |  |  | 
14 | COc1cccc(-c2cnc(N3CCC(CNCc4ccc5c(c4)CN(C4CCC(=O)NC4=O)C5=O)CC3)c(C(F)(F)F)c2)c1 (centres unmarked) [Compound A95] | < 0.2 nM | 0% | 0% |  |  | 
15 | O=C1CCC(N2Cc3cc(CNCC4CCN(c5ncc(-c6cccc(C(F)(F)F)c6)cc5F)CC4)ccc3C2=O)C(=O)N1 (centres unmarked) [Compound A110] | < 0.2 nM | 3% | 0% |  |  | 
16 | O=C1CCC(N2Cc3cc(CNCC4CCN(c5ncc(-c6ccccc6Cl)cc5F)CC4)ccc3C2=O)C(=O)N1 (centres unmarked) [Compound A72] | 63 nM | 16% | 0% |  |  | 
17 | O=C1CCC(N2Cc3cc(CNCC4CCN(c5ncc(-c6cccc(Cl)c6)cc5F)CC4F)ccc3C2=O)C(=O)N1 (centres unmarked) [Compound A87] | 0.6 nM | 11% | 0% |  |  | 
18 | O=C1CCC(N2Cc3cc(CNCC4CCN(c5cnc(-c6cccc7ccccc67)cn5)CC4)ccc3C2=O)C(=O)N1 (centres unmarked) [Compound A63] | 0.2 nM | 19% | 5% |  |  | 
19 | O=C1CCC(N2Cc3cc(CNCC4CCN(c5ncc(-c6cccc(F)c6)cc5F)CC4)ccc3C2=O)C(=O)N1 (centres unmarked) [Compound A108] | < 0.2 nM | 2% | 29% |  |  | 
20 | N#Cc1cc(-c2cccc(Cl)c2)ccc1N1CCC(CNCc2ccc3c(c2)CN(C2CCC(=O)NC2=O)C3=O)CC1 (centres unmarked) [Compound A103] | 1.5 nM | 6% | 0% |  |  | 
21 | O=C1CCC(N2Cc3cc(NCCC4CCN(c5ncc(-c6cccc(Cl)c6)cc5C(F)(F)F)CC4)ccc3C2=O)C(=O)N1 (centres unmarked) [Compound A131] | 35.8 nM |  |  | simultaneously degrade both GSPT1 and c-Myc proteins | simultaneously degrade both GSPT1 and c-Myc proteins | significantly degrade GSPT1 protein
22 | N#Cc1cc(-c2cccc(Cl)c2)cnc1N1CCC(CNCc2ccc3c(c2)CN(C2CCC(=O)NC2=O)C3=O)CC1 (centres unmarked) [Compound A98] | 1 nM | 157% | 3% |  |  | 
23 | O=C1CCC(N2Cc3cc(CNCC4CCN(c5ncc(-c6ccccc6)cc5C(F)(F)F)CC4)ccc3C2=O)C(=O)N1 (centres unmarked) [Compound A92] | < 0.2 nM | 6% | 0% |  |  | 
24 | O=C1CCC(N2Cc3cc(CNCC4CCN(c5ncc(-c6ccc(F)cc6)cc5F)CC4)ccc3C2=O)C(=O)N1 (centres unmarked) [Compound A109] | 6.2 nM | 3% | 6% |  |  | 
25 | O=C1CCC(N2Cc3cc(CNCC4CCN(c5ncc(-c6ccc(Cl)cc6)cc5F)CC4)ccc3C2=O)C(=O)N1 (centres unmarked) [Compound A74] | 1.1 nM | 104% | 10% |  |  | 
26 | O=C1CCC(N2Cc3cc(CNCC4CCN(c5ncc(-c6cccc7ccccc67)s5)CC4)ccc3C2=O)C(=O)N1 (centres unmarked) [Compound A61] | 0.3 nM | 0% | 4% |  |  | 
27 | O=C1CC[C@H](N2Cc3cc(CNCC4CCN(c5ncc(-c6cccc(Cl)c6)cc5C(F)(F)F)CC4)ccc3C2=O)C(=O)N1 [Compound A81] | < 0.2 nM | 0% | 0% |  |  | 
28 | Cc1cccc(-c2cnc(N3CCC(CNCc4ccc5c(c4)CN(C4CCC(=O)NC4=O)C5=O)CC3)c(C(F)(F)F)c2)c1 (centres unmarked) [Compound A94] | 0.1 nM | 0% | 0% |  |  | 

— patent US20250059162A1, “MULTI-PROTEIN DEGRADATION AGENT HAVING IMIDE SKELETON” (SUZHOU KINTOR PHARMACEUTICALS, INC., priority 2021, published 2025)
